Results reported in ChEMBL document CHEMBL4406894, “Design, synthesis and biological evaluation of novel desloratadine derivatives with anti-inflammatory and H1 antagonize activities” (Bioorg Med Chem Lett, 2019).
Activity calls are given as the source filed them. No cut-off for these calls is given here.

Assays:
Mus musculus [1] = species on record: Mus musculus; conditions: BALB/C, at 5 mg/kg
Mus musculus [2] = experiment: Anti-inflammatory activity in DNFB-induced mouse ear edema model assessed as inhibition in ear swelling at 5 mg/kg relative to control; format: functional
Mus musculus [3] = experiment: Immunosuppressive activity in BALB/C mouse assessed as inhibition in TNFalpha production by TNFalpha level at 5 mg/kg by ELISA; format: functional
[4] = Intrinsic clearance in dog liver microsomes incubated for 6 hrs by LC/MS analysis; format: ADME, Canis lupus familiaris, Microsome; conditions: read-out: CLH
[5] = Half life in dog liver microsomes incubated for 6 hrs by LC/MS analysis; format: ADME, Canis lupus familiaris, Microsome
[6] = Half life in mouse liver microsomes incubated for 6 hrs by LC/MS analysis; format: ADME, Microsome
[7] = Intrinsic clearance in human liver microsomes incubated for 6 hrs by LC/MS analysis; format: ADME, Microsome; conditions: read-out: CLH
[8] = Intrinsic clearance in Rat liver microsomes incubated for 6 hrs by LC/MS analysis; format: ADME, Microsome; conditions: read-out: CLH
[9] = Half life in rat liver microsomes incubated for 6 hrs by LC/MS analysis; format: ADME, Microsome
[10] = Toxicity in Sprague-Dawley rat; conditions: in vivo
[11] = Clearance in ICR mouse at 2.5 mg/kg, iv; format: ADME, organism-based; conditions: in vivo
[12] = Clearance in Sprague-Dawley rat at 2 mg/kg, iv; format: ADME, organism-based; conditions: in vivo
[13] = Toxicity in ICR mouse; conditions: in vivo
[14] = Half life in Sprague-Dawley rat at 10 mg/kg, po; format: ADME, organism-based; conditions: in vivo
[15] = Half life in Sprague-Dawley rat at 2 mg/kg, iv; format: ADME, organism-based; conditions: in vivo
[16] = Half life in ICR mouse at 2.5 mg/kg, iv; format: ADME, organism-based; conditions: in vivo
[17] = Oral bioavailability in Sprague-Dawley rat at 10 mg/kg; format: ADME, organism-based; conditions: in vivo
[18] = Half life in human liver microsomes incubated for 6 hrs by LC/MS analysis; format: ADME, Microsome
[19] = Intrinsic clearance in mouse liver microsomes incubated for 6 hrs by LC/MS analysis; format: ADME, Microsome; conditions: read-out: CLH
[20] = Half life in monkey liver microsomes incubated for 6 hrs by LC/MS analysis; format: ADME, Macaca mulatta, Microsome; conditions: rhesus monkey
[21] = Intrinsic clearance in monkey liver microsomes incubated for 6 hrs by LC/MS analysis; format: ADME, Macaca mulatta, Microsome; conditions: rhesus monkey, read-out: CLH

COc1cccc(OCC(O)CN2CCC(=C3c4ccc(Cl)cc4CCc4cccnc43)CC2)c1 (configuration not stated)
inhibition (Mus musculus [1]): Active | inhibition in vivo at 5 mg/kg (Mus musculus [2]): 43.1%

COc1ccccc1OC[C@@H](O)CN1CCC(=C2c3ccc(Cl)cc3CCc3cccnc32)CC1
Activity (Mus musculus [3]): 1.18 ng/mL

COc1ccccc1OCCCN1CCC(=C2c3ccc(Cl)cc3CCc3cccnc32)CC1
inhibition (Mus musculus [1]): Active | inhibition in vivo at 5 mg/kg (Mus musculus [2]): 59.5%

Cc1ccccc1OCC(O)CN1CCC(=C2c3ccc(Cl)cc3CCc3cccnc32)CC1 (configuration not stated)
inhibition (Mus musculus [1]): Active | inhibition in vivo at 5 mg/kg (Mus musculus [2]): 59.1%

OC(COc1ccccc1F)CN1CCC(=C2c3ccc(Cl)cc3CCc3cccnc32)CC1 (configuration not stated)
inhibition (Mus musculus [1]): Active | inhibition in vivo at 5 mg/kg (Mus musculus [2]): 26%

OC(COc1ccccc1)CN1CCC(=C2c3ccc(Cl)cc3CCc3cccnc32)CC1 (configuration not stated)
inhibition (Mus musculus [1]): Active | inhibition in vivo at 5 mg/kg (Mus musculus [2]): 59.1%

COc1ccccc1OC[C@H](O)CN1CCC(=C2c3ccc(Cl)cc3CCc3cccnc32)CC1
Activity (Mus musculus [3]): 1.21 ng/mL

COc1ccccc1OCC(O)CN1CCC(=C2c3ccc(Cl)cc3CCc3cccnc32)CC1 (racemic)
microsomal CLint [4]: 158 µL/min/mg | half-life [5]: 8.76 min | half-life [6]: 1.47 min | Activity (Mus musculus [3]): 1.14 ng/mL | microsomal CLint [7]: 179 µL/min/mg | microsomal CLint [8]: 359 µL/min/mg | half-life [9]: 3.87 min | MTD [10]: 750 mg/kg | clearance [11]: 99.5 mL/min/kg | clearance [12]: 19.6 mL/min/kg | MTD [13]: 750 mg/kg | half-life [14]: 84 min | inhibition in vivo at 5 mg/kg (Mus musculus [2]): 59.2% | half-life [15]: 54 min | half-life [16]: 28.2 min | bioavailability [17]: 18% | half-life [18]: 7.74 min | microsomal CLint [19]: 945 µL/min/mg

Clc1ccc2c(c1)CCc1cccnc1C2=C1CCNCC1 [DESLORATADINE]
LD50 [10]: 250 mg/kg | LD50 [13]: 250 mg/kg

Cc1ncc2n1-c1ccc(Cl)cc1C(c1ccccc1F)=NC2 [MIDAZOLAM]
microsomal CLint [4]: 1230 µL/min/mg | half-life [5]: 2.81 min | half-life [6]: 8.06 min | microsomal CLint [7]: 289 µL/min/mg | half-life [20]: 3.74 min | microsomal CLint [21]: 927 µL/min/mg | microsomal CLint [8]: 808 µL/min/mg | half-life [9]: 4.29 min | half-life [18]: 12 min | microsomal CLint [19]: 430 µL/min/mg
